# Values quoted from earlier work, collected in patent US20170246163A1, “METHODS OF IMPROVING BALANCE, GAIT OR BOTH IN PATIENTS WITH NEUROLOGICAL DISEASE” (priority 2016, published 2017).
# Like-named read-outs stand apart in the source and are kept apart here.
# Experiments:
# [1] = system: PD patients experiencing frequent falls; conditions: crossover versus placebo, p<0.05
# [2] = system: subjects with mild-to-moderate Alzheimer's disease; conditions: 48 weeks
# [3] = system: subjects with moderate Alzheimer's disease; conditions: Phase 2
# [4] = system: patients with either PD, PD-MCI, or PDD; conditions: 176 patients with PD, 12 months, p<0.01
structure (smiles),measurement,setting,value
COc1cc2c(cc1OC)C(=O)C(CC1CCN(Cc3ccccc3)CC1)C2 (stereo not drawn) [donepezil],falls reported while on treatment,[1],0.13 falls/day
same,subjects who experienced falls,[2]; donepezil alone,6%
same,subjects who experienced falls,[3]; donepezil alone,6%
Fc1ccc2c(CCNCc3cccc(OCC(F)(F)C(F)F)c3)c[nH]c2c1 [idalopirdine],subjects who experienced falls,[3]; on top of donepezil,2%
"O=S(=O)(c1ccccc1)c1cnc2c(N3CCNCC3)cccc2c1 [intepirdine, 3-phenylsulfonyl-8-piperazinyl-1yl-quinoline]",subjects who experienced falls,[2]; on top of donepezil,2%
CCN(C)C(=O)Oc1cccc([C@H](C)N(C)C)c1 [rivastigmine],lowering of the incidence of falls relative to baseline,[4],50%
